According to ChEMBL document CHEMBL4507272 (2021):

Tests used:
[1] = system: Tyrosine-protein kinase ABL1 (Homo sapiens), P00519 [Q252H]; conditions: Compound concentration 1000.0 nM
[2] = system: Tyrosine-protein kinase ABL1 (Homo sapiens), P00519 [T315I]; conditions: Compound concentration 1000.0 nM
[3] = biological target: NUAK family SNF1-like kinase 1 (Homo sapiens) (UniProt O60285); conditions: Compound concentration 1000.0 nM
[4] = biological target: Cytoplasmic tyrosine-protein kinase BMX (Homo sapiens) (UniProt P51813); conditions: Compound concentration 1000.0 nM
[5] = biological target: Serine/threonine-protein kinase BRSK1 (Homo sapiens) (UniProt Q8TDC3); conditions: Compound concentration 1000.0 nM
[6] = biological target: Calcium/calmodulin-dependent protein kinase type 1B (Homo sapiens) (UniProt Q6P2M8); conditions: Compound concentration 1000.0 nM
[7] = biological target: Calcium/calmodulin-dependent protein kinase kinase 2 (Homo sapiens) (UniProt Q96RR4); conditions: Compound concentration 1000.0 nM
[8] = biological target: Cyclin-dependent kinase 19 (Homo sapiens) (UniProt Q9BWU1); conditions: Compound concentration 1000.0 nM
[9] = biological target: Casein kinase I isoform gamma-1 (Homo sapiens) (UniProt Q9HCP0); conditions: Compound concentration 1000.0 nM
[10] = biological target: Discoidin domain-containing receptor 2 (Homo sapiens) (UniProt Q16832); conditions: Compound concentration 1000.0 nM
[11] = system: Epidermal growth factor receptor (Homo sapiens), P00533 [UNDEFINED MUTATION]; conditions: Compound concentration 1000.0 nM
[12] = biological target: Ephrin type-A receptor 2 (Homo sapiens) (UniProt P29317); conditions: Compound concentration 1000.0 nM
[13] = biological target: Receptor tyrosine-protein kinase erbB-4 (Homo sapiens) (UniProt Q15303); conditions: Compound concentration 1000.0 nM
[14] = biological target: Focal adhesion kinase 1 (Homo sapiens) (UniProt Q05397); conditions: Compound concentration 1000.0 nM
[15] = biological target: Fibroblast growth factor receptor 1 (Homo sapiens) (UniProt P11362); conditions: Compound concentration 1000.0 nM
[16] = system: Receptor-type tyrosine-protein kinase FLT3 (Homo sapiens), P36888 [D835V]; conditions: Compound concentration 1000.0 nM
[17] = system: Receptor-type tyrosine-protein kinase FLT3 (Homo sapiens), P36888 [R834Q]; conditions: Compound concentration 1000.0 nM
[18] = biological target: Vascular endothelial growth factor receptor 3 (Homo sapiens) (UniProt P35916); conditions: Compound concentration 1000.0 nM
[19] = biological target: Glycogen synthase kinase-3 alpha (Homo sapiens) (UniProt P49840); conditions: Compound concentration 1000.0 nM
Glycogen synthase kinase-3 alpha (Homo sapiens), sequence (P49840 2-483 limits assumed): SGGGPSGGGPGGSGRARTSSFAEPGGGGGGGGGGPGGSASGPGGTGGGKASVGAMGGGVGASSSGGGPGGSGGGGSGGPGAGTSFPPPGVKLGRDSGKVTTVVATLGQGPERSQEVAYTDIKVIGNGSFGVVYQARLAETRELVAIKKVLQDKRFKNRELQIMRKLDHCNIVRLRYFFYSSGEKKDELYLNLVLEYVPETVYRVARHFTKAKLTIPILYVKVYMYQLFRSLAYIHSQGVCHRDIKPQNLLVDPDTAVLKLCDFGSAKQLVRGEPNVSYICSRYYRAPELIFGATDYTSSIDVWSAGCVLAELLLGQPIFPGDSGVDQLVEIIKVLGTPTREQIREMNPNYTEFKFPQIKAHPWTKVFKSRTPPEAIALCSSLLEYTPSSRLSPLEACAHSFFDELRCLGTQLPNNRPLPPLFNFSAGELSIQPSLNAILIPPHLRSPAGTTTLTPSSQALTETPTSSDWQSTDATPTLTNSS

[20] = biological target: Mitogen-activated protein kinase kinase kinase kinase 1 (Homo sapiens) (UniProt Q92918); conditions: Compound concentration 1000.0 nM
[21] = biological target: Mast/stem cell growth factor receptor Kit (Homo sapiens) (UniProt P10721); conditions: Compound concentration 1000.0 nM
[22] = system: Mast/stem cell growth factor receptor Kit (Homo sapiens), P10721 [D816V]; conditions: Compound concentration 1000.0 nM
[23] = biological target: Tyrosine-protein kinase Lck (Homo sapiens) (UniProt P06239); conditions: Compound concentration 1000.0 nM
[24] = biological target: LIM domain kinase 1 (Homo sapiens) (UniProt P53667); conditions: Compound concentration 1000.0 nM
[25] = system: Leucine-rich repeat serine/threonine-protein kinase 2 (Homo sapiens), Q5S007 [G2019S]; conditions: Compound concentration 1000.0 nM
[26] = biological target: Serine/threonine-protein kinase MAK (Homo sapiens) (UniProt P20794); conditions: Compound concentration 1000.0 nM
[27] = biological target: Mitogen-activated protein kinase kinase kinase kinase 3 (Homo sapiens) (UniProt Q8IVH8); conditions: Compound concentration 1000.0 nM
[28] = biological target: Mitogen-activated protein kinase kinase kinase kinase 4 (Homo sapiens) (UniProt O95819); conditions: Compound concentration 1000.0 nM
[29] = biological target: Myosin light chain kinase, smooth muscle (Homo sapiens) (UniProt Q15746); conditions: Compound concentration 1000.0 nM
[30] = biological target: Serine/threonine-protein kinase Nek9 (Homo sapiens) (UniProt Q8TD19); conditions: Compound concentration 1000.0 nM
Serine/threonine-protein kinase Nek9 (Homo sapiens), sequence (Q8TD19 whole entry, canonical isoform): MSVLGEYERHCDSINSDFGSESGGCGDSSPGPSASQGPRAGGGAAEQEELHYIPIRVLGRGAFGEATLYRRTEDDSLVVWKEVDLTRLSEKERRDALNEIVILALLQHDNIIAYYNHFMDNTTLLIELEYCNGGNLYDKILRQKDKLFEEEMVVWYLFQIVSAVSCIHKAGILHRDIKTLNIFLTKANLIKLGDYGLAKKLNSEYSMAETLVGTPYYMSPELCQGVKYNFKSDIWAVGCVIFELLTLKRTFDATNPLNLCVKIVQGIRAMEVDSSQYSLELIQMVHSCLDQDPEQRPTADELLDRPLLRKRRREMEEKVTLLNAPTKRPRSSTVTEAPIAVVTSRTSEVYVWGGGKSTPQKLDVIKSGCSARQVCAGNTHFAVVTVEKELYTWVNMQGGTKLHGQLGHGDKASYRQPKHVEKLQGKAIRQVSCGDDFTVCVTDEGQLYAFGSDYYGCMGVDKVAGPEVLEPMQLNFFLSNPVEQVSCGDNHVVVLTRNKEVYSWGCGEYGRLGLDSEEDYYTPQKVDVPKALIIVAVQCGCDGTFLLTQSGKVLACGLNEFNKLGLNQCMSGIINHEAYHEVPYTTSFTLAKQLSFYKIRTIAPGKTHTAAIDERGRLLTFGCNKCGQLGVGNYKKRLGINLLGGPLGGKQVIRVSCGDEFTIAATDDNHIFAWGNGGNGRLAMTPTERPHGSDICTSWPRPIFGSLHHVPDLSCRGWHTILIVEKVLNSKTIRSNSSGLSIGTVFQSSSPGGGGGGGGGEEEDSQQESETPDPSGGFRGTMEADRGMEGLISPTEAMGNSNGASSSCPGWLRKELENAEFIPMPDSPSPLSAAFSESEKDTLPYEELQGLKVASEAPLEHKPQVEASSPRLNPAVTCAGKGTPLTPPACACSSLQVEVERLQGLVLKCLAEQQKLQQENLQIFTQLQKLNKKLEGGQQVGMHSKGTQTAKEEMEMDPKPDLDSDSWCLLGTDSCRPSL

[31] = system: Phosphatidylinositol 4,5-bisphosphate 3-kinase catalytic subunit alpha isoform (Homo sapiens), P42336 [E542K]; conditions: Compound concentration 1000.0 nM
[32] = biological target: cAMP-dependent protein kinase catalytic subunit beta (Homo sapiens) (UniProt P22694); conditions: Compound concentration 1000.0 nM
[33] = biological target: Serine/threonine-protein kinase SIK3 (Homo sapiens) (UniProt Q9Y2K2); conditions: Compound concentration 1000.0 nM
Serine/threonine-protein kinase SIK3 (Homo sapiens), sequence (Q9Y2K2 whole entry, looked up): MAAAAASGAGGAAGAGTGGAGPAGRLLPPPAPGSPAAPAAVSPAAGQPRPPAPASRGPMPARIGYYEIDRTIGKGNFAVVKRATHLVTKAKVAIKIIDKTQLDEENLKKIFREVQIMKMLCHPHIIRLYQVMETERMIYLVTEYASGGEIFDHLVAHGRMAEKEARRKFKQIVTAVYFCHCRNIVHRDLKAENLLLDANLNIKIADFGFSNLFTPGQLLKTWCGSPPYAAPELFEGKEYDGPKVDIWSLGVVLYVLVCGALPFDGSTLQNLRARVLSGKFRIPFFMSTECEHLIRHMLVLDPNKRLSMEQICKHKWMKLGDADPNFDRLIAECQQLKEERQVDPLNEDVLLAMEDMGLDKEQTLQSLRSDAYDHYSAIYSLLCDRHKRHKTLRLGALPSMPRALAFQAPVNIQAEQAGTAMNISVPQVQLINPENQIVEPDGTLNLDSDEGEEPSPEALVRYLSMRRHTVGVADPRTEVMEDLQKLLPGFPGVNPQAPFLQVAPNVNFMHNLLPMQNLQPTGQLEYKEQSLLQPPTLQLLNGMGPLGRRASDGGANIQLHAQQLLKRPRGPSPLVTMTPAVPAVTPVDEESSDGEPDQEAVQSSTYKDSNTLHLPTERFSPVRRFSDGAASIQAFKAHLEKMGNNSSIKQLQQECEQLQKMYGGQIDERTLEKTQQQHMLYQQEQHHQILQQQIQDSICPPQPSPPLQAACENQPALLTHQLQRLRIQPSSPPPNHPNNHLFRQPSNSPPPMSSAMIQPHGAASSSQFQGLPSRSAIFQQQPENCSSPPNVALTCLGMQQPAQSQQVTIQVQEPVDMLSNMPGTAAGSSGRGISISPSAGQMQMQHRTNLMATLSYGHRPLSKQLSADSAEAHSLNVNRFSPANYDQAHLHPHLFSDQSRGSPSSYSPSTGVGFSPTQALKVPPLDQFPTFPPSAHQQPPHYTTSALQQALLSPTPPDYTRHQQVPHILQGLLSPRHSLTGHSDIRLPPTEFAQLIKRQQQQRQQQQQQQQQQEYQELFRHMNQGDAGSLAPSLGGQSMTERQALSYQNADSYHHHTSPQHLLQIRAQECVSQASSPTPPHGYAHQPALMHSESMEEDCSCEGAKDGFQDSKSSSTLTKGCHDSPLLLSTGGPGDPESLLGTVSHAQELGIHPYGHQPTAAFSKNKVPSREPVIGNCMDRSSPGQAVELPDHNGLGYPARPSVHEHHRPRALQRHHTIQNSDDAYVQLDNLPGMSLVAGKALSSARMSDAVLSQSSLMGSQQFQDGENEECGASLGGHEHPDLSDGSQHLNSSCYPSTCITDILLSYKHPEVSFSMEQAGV

[34] = biological target: Proto-oncogene tyrosine-protein kinase ROS (Homo sapiens) (UniProt P08922); conditions: Compound concentration 1000.0 nM
[35] = biological target: Ribosomal protein S6 kinase alpha-4 (Homo sapiens) (UniProt O75676); conditions: Compound concentration 1000.0 nM
[36] = biological target: Ribosomal protein S6 kinase alpha-1 (Homo sapiens) (UniProt Q15418); conditions: Compound concentration 1000.0 nM
Ribosomal protein S6 kinase alpha-1 (Homo sapiens), sequence (Q15418 whole entry): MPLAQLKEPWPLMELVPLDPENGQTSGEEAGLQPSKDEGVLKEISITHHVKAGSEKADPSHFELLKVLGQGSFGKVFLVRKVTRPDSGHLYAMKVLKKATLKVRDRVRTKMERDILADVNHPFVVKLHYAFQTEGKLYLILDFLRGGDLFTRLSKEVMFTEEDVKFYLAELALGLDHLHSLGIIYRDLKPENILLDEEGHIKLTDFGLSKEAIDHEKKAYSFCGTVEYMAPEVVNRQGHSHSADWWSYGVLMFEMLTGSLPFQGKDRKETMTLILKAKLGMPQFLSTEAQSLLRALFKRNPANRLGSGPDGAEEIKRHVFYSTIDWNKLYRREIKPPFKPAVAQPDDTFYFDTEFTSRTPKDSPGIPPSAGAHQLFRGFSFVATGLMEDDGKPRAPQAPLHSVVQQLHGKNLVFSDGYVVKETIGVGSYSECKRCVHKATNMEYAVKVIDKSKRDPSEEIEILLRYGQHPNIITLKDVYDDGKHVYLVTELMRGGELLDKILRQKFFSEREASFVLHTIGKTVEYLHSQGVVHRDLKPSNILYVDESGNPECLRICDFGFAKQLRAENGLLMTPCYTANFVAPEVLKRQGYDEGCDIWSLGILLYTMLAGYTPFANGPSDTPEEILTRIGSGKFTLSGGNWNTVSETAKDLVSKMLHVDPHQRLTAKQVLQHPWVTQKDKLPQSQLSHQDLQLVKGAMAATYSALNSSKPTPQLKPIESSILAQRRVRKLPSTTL

[37] = biological target: Serine/threonine-protein kinase Sgk3 (Homo sapiens) (UniProt Q96BR1); conditions: Compound concentration 1000.0 nM
[38] = biological target: SNF-related serine/threonine-protein kinase (Homo sapiens) (UniProt Q9NRH2); conditions: Compound concentration 1000.0 nM
[39] = biological target: Tyrosine-protein kinase Srms (Homo sapiens) (UniProt Q9H3Y6); conditions: Compound concentration 1000.0 nM
[40] = biological target: Transient receptor potential cation channel subfamily M member 6 (Homo sapiens) (UniProt Q9BX84); conditions: Compound concentration 1000.0 nM
[41] = biological target: Testis-specific serine/threonine-protein kinase 1 (Homo sapiens) (UniProt Q9BXA7); conditions: Compound concentration 1000.0 nM
Testis-specific serine/threonine-protein kinase 1 (Homo sapiens), sequence (Q9BXA7 whole entry): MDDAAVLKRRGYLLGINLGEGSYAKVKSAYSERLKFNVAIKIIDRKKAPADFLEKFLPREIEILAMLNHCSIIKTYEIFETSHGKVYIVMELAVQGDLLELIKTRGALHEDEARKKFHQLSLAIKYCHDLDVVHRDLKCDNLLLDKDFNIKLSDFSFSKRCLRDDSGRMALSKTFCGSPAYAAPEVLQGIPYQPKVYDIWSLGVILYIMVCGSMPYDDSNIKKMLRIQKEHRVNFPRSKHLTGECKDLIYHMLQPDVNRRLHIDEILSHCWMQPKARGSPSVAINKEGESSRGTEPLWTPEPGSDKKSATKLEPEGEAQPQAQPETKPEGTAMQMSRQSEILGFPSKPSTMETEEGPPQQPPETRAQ

[42] = biological target: Serine/threonine-protein kinase 32A (Homo sapiens) (UniProt Q8WU08); conditions: Compound concentration 1000.0 nM
Serine/threonine-protein kinase 32A (Homo sapiens), sequence (Q8WU08 whole entry): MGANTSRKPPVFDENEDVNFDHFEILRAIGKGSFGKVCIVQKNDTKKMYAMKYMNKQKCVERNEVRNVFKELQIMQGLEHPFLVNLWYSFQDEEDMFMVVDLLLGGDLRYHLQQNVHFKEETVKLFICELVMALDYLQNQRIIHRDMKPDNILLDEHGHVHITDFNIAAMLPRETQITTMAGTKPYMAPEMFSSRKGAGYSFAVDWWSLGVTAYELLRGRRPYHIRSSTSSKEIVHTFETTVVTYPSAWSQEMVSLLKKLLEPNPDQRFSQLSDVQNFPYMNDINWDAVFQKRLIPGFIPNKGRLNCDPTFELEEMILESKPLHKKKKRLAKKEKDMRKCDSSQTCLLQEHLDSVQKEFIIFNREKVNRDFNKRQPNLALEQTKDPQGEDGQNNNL

[43] = biological target: Sodium-dependent serotonin transporter (Homo sapiens) (UniProt P31645); conditions: Compound concentration 10.0 uM
[44] = biological target: Histamine H4 receptor (Homo sapiens) (UniProt Q9H3N8); conditions: Compound concentration 10.0 uM
[45] = biological target: Alpha-2C adrenergic receptor (Homo sapiens) (UniProt P18825); conditions: Compound concentration 10.0 uM

NUAK family SNF1-like kinase 1 (Homo sapiens), sequence (O60285 whole entry): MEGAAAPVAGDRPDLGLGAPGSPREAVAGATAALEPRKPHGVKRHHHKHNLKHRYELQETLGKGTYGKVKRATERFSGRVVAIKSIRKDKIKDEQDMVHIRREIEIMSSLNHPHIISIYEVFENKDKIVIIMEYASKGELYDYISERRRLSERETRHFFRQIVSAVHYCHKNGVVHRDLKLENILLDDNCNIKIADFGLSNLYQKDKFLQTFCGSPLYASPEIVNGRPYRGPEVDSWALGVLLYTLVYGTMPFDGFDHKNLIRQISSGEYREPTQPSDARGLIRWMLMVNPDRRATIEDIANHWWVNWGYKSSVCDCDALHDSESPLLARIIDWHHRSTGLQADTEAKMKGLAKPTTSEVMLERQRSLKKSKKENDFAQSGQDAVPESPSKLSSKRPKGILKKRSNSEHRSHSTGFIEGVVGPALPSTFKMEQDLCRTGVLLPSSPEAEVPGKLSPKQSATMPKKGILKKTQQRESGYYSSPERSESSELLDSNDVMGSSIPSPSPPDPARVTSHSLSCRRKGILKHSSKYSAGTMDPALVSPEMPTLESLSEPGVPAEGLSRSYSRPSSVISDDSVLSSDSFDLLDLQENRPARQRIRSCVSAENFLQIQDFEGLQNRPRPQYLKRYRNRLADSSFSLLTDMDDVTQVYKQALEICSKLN

Compound: CC(=O)C1=C(C)N(c2cccc(C(F)(F)F)c2)C(=O)N[C@@H]1c1ccc(C#N)nc1 [BAY-678]
- residual activity [1]: 100%
- residual activity [2]: 96.9%
- residual activity [3]: 93.2%
- residual activity [4]: 97.4%
- residual activity [5]: 100%
- residual activity [6]: 92.4%
- residual activity [7]: 100%
- residual activity [8]: 96.9%
- residual activity [9]: 100%
- residual activity [10]: 87.6%
- residual activity [11]: 78.6%
- residual activity [12]: 100%
- residual activity [13]: 90.8%
- residual activity [14]: 100%
- residual activity [15]: 100%
- residual activity [16]: 64.2%
- residual activity [17]: 83.6%
- residual activity [18]: 100%
- residual activity [19]: 95%
- residual activity [20]: 100%
- residual activity [21]: 96.9%
- residual activity [22]: 100%
- residual activity [23]: 100%
- residual activity [24]: 70.2%
- residual activity [25]: 100%
- residual activity [26]: 82.5%
- residual activity [27]: 83.5%
- residual activity [28]: 99.3%
- residual activity [29]: 83.8%
- residual activity [30]: 100%
- residual activity [31]: 100%
- residual activity [32]: 48.7%
- residual activity [33]: 100%
- residual activity [34]: 100%
- residual activity [35]: 78.8%
- residual activity [36]: 91.5%
- residual activity [37]: 100%
- residual activity [38]: 100%
- residual activity [39]: 97.9%
- residual activity [40]: 83.8%
- residual activity [41]: 100%
- residual activity [42]: 100%
- inhibition [43]: -2.61%
- inhibition [44]: 25.9%
- inhibition [45]: 20.2%
